Measured values taken from patent US7932270B2 (Cytokinetics, Inc., priority 2006, dated 2011).
pIC50: −log10 of the molar value.

Molecular target: T1, chicken gizzard smooth muscle myosin subfragment-1 chemically crosslinked to cardiac or skeletal actin (Gallus gallus, UniProt P10587)
T1 construct: chicken gizzard smooth muscle myosin subfragment-1; from tissue; host or cells: chicken gizzard
Assay: Smooth muscle myosin ATPase dose response assay (pyruvate kinase/horseradish peroxidase/pyruvate oxidase-coupled, amplex red fluorescence)
Assay type: biochemical
Details: read-out: IC50 Arithmetic Mean
How it was run: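 Amplex red fluorescence (480 nm excitation, 615 nm emission) tracked ATP hydrolysis by smooth muscle S1 crosslinked to actin with carbodiimide/N-hydroxysuccinimide. Reactions contained 0.15 mM ATP and 100 mM KCl at pH 7.00, 22° C. IC50 came from a four-parameter logistic fit.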

T1 sequence (P02607 2-151): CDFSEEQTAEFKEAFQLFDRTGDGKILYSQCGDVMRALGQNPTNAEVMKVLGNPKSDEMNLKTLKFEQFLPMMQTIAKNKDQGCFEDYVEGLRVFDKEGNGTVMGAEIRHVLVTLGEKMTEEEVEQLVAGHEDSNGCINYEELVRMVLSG
T1 sequence (P10587 84-789): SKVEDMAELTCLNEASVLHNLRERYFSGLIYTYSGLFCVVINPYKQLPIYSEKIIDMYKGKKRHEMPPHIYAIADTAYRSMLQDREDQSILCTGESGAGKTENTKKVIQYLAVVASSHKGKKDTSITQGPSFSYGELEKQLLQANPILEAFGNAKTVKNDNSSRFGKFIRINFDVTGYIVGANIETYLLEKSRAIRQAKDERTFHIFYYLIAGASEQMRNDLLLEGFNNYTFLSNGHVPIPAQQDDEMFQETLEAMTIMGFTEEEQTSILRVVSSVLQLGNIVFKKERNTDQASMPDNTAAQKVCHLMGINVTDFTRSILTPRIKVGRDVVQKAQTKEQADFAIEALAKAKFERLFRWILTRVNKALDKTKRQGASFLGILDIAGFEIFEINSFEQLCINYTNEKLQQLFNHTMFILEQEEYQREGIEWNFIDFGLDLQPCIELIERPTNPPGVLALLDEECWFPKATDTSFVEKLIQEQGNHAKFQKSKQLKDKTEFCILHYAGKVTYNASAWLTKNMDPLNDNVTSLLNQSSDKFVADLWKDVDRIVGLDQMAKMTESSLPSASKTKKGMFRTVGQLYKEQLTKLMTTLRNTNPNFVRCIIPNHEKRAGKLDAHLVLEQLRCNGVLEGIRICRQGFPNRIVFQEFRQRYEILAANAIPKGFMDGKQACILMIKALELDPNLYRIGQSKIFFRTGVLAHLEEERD

Going from NCc1ncccc1CNC(=O)c1cc(F)c(-c2cn[nH]c2)nc1NCCc1cccc(F)c1 [N-{[2-(aminomethyl)(3-pyridyl)]methyl}(5-fluoro-2-{[2-(3-fluorophenyl)ethyl]amino}-6-pyrazol-4-yl(3-pyridyl))carboxamide] to N#Cc1ccccc1-c1nc(NCCc2cccc(F)c2)c(C(=O)NCc2cccnc2CN)cc1F [N-{[2-(aminomethyl)(3-pyridyl)]methyl}(6-(2-cyanophenyl)-5-fluoro-2-{[2-(3-fluorophenyl)ethyl]amino}(3-pyridyl))carboxamide], the pIC50 rises from 7.92 to 8.22 (0.30 log units). The second is the more potent here.

First: N#Cc1ccccc1-c1ccc(C(=O)NCc2cccnc2CN)c(NCCc2cccc(F)c2)n1 [N-{[2-(aminomethyl)(3-pyridyl)]methyl}(6-(2-cyanophenyl)-2-{[2-(3-fluorophenyl)ethyl]amino}(3-pyridyl))carboxamide]
Second: N#Cc1ccccc1-c1ccc(C(=O)NCc2ncccc2CN)c(NCCc2cccc(F)c2)n1 [N-{[3-(aminomethyl)(2-pyridyl)]methyl}(6-(2-cyanophenyl)-2-{[2-(3-fluorophenyl)ethyl]amino}(3-pyridyl))carboxamide]
The pIC50 of the first is 2.02 log units higher: 8.22 for the first, 6.20 for the second.

First: Cc1cc(C(=O)NCc2cccnc2CN)c(NCCc2cccc(F)c2)nc1-c1ccccc1C#N [N-{[2-(aminomethyl)(3-pyridyl)]methyl}(6-(2-cyanophenyl)-2-{[2-(3-fluorophenyl)ethyl]amino}-5-methyl(3-pyridyl))carboxamide]
Second: N#Cc1ccccc1-c1ccc(C(=O)NCc2ccncc2CN)c(NCCc2cccc(F)c2)n1 [N-{[3-(aminomethyl)(4-pyridyl)]methyl}(6-(2-cyanophenyl)-2-{[2-(3-fluorophenyl)ethyl]amino}(3-pyridyl))carboxamide]
The pIC50 of the first is 0.45 log units lower: 6.80 for the first, 7.25 for the second. The second is the more potent here.

First: NCc1ncccc1CNC(=O)c1ccc(-c2cn[nH]c2)nc1NCCc1ccccn1 [N-{[2-(aminomethyl)(3-pyridyl)]methyl}{6-pyrazol-4-yl-2-[(2-(2-pyridyl)ethyl)amino](3-pyridyl)}carboxamide]
Second: NCc1cccc(CNC(=O)c2ccc(-c3cn[nH]c3)nc2NCCc2cccc(F)c2)n1 [N-{[6-(aminomethyl)(2-pyridyl)]methyl}(2-{[2-(3-fluorophenyl)ethyl]amino}-6-pyrazol-4-yl(3-pyridyl))carboxamide]
The pIC50 of the first is 1.01 log units lower: 5.91 for the first, 6.92 for the second. The second is the more potent here.

Compared with N#Cc1ccccc1-c1ccc(C(=O)NCc2ccccc2CN)c(NCCc2cccc(F)c2)n1 [N-{[2-(aminomethyl)phenyl]methyl}(6-(2-cyanophenyl)-2-{[2-(3-fluorophenyl)ethyl]amino}(3-pyridyl))carboxamide], N#Cc1ccccc1-c1ccc(C(=O)NCc2cnccc2CN)c(NCCc2cccc(F)c2)n1 [N-{[4-(aminomethyl)(3-pyridyl)]methyl}(6-(2-cyanophenyl)-2-{[2-(3-fluorophenyl)ethyl]amino}(3-pyridyl))carboxamide] is 1.22 log units lower in pIC50: 7.62 for the first, 6.40 for the second.

First: N#Cc1ccccc1-c1ccc(C(=O)NCC2CCCC(CN)C2)c(NCCc2cccc(F)c2)n1 (centres unmarked) [N-{[3-(aminomethyl)cyclohexyl]methyl}(6-(2-cyanophenyl)-2-{[2-(3-fluorophenyl)ethyl]amino}(3-pyridyl))carboxamide]
Second: N#Cc1ccccc1-c1ccc(C(=O)NCc2cccc(CN)c2)c(NCCc2cccc(F)c2)n1 [N-{[3-(aminomethyl)phenyl]methyl}(6-(2-cyanophenyl)-2-{[2-(3-fluorophenyl)ethyl]amino}(3-pyridyl))carboxamide]
The pIC50 of the first is 1.47 log units lower: 6.45 for the first, 7.92 for the second.

NCc1ccnc(CNC(=O)c2ccc(-c3ccccc3)nc2NCCc2cccc(F)c2)c1 [N-{[4-(aminomethyl)(2-pyridyl)]methyl}(2-{[2-(3-fluorophenyl)ethyl]amino}-6-phenyl(3-pyridyl))carboxamide] and NCc1ccc(CNC(=O)c2ccc(-c3ccccc3)nc2NCCc2cccc(F)c2)nc1 [N-{[5-(aminomethyl)(2-pyridyl)]methyl}(2-{[2-(3-fluorophenyl)ethyl]amino}-6-phenyl(3-pyridyl))carboxamide] are within 0.2 log units of each other in pIC50: 5.92 for the first, 5.97 for the second.

N#Cc1ccccc1-c1ccc(C(=O)NCc2cc(CN)ccn2)c(NCCc2cccc(F)c2)n1 [N-{[4-(aminomethyl)(2-pyridyl)]methyl}(6-(2-cyanophenyl)-2-{[2-(3-fluorophenyl)ethyl]amino}(3-pyridyl))carboxamide] and N#Cc1ccccc1-c1ccc(C(=O)NCc2ccc(CN)cn2)c(NCCc2cccc(F)c2)n1 [N-{[5-(aminomethyl)(2-pyridyl)]methyl}(6-(2-cyanophenyl)-2-{[2-(3-fluorophenyl)ethyl]amino}(3-pyridyl))carboxamide] are within 0.2 log units of each other in pIC50: 6.22 for the first, 6.29 for the second.

N#Cc1ccccc1-c1ccc(C(=O)NCc2ccc(CN)cc2)c(NCCc2cccc(F)c2)n1 [N-{[4-(aminomethyl)phenyl]methyl}(6-(2-cyanophenyl)-2-{[2-(3-fluorophenyl)ethyl]amino}(3-pyridyl))carboxamide] and N#Cc1ccccc1-c1ccc(C(=O)NCc2cncc(CN)c2)c(NCCc2cccc(F)c2)n1 [N-{[5-(aminomethyl)(3-pyridyl)]methyl}(6-(2-cyanophenyl)-2-{[2-(3-fluorophenyl)ethyl]amino}(3-pyridyl))carboxamide] are within 0.2 log units of each other in pIC50: 6.56 for the first, 6.49 for the second.

NCCc1cccc(CNC(=O)c2ccc(-c3ccccc3)nc2NCCc2cccc(F)c2)n1 [N-{[6-(2-aminoethyl)(2-pyridyl)]methyl}(2-{[2-(3-fluorophenyl)ethyl]amino}-6-phenyl(3-pyridyl))carboxamide] and NCc1cccc(CNC(=O)c2ccc(-c3ccccc3)nc2NCCc2cccc(F)c2)n1 [N-{[6-(aminomethyl)(2-pyridyl)]methyl}(2-{[2-(3-fluorophenyl)ethyl]amino}-6-phenyl(3-pyridyl))carboxamide] are within 0.2 log units of each other in pIC50: 7.62 for the first, 7.72 for the second.

N#Cc1ccccc1-c1ccc(C(=O)NCc2cccc(CCN)n2)c(NCCc2cccc(F)c2)n1 [N-{[6-(2-aminoethyl)(2-pyridyl)]methyl}(6-(2-cyanophenyl)-2-{[2-(3-fluorophenyl)ethyl]amino}(3-pyridyl))carboxamide] and N#Cc1ccccc1-c1ccc(C(=O)NCc2cccc(CN)n2)c(NCCc2cccc(F)c2)n1 [N-{[6-(aminomethyl)(2-pyridyl)]methy}(6-(2-cyanophenyl)-2-{[2-(3-fluorophenyl)ethyl]amino}(3-pyridyl))carboxamide] are within 0.2 log units of each other in pIC50: 7.96 for the first, 8.05 for the second.

Compared with CC(=O)N1CCN(c2ccc(CNC(=O)c3ccc(-c4ccccc4C#N)nc3NCCc3cccc(F)c3)cn2)CC1 [N-{[6-(4-acetylpiperazinyl)(3-pyridyl)]methyl}(6-(2-cyanophenyl)-2-{[2-(3-fluorophenyl)ethyl]amino}(3-pyridyl))carboxamide], Cn1cc(-c2ccc(C(=O)NCc3cccc(CN)n3)c(NCCc3cccc(F)c3)n2)cn1 [N-{[6-(aminomethyl)(2-pyridyl)]methyl}(2-{[2-(3-fluorophenyl)ethyl]amino}-6-(1-methylpyrazol-4-yl)(3-pyridyl))carboxamide] is 1.76 log units higher in pIC50: 5.11 for the first, 6.87 for the second.

First: Cn1cc(-c2nc(NCCc3cccc(F)c3)c(C(=O)NCc3cccc(CN)n3)cc2Br)cn1 [N-{[6-(aminomethyl)(2-pyridyl)]methyl}(5-bromo-2-{[2-(3-fluorophenyl)ethyl]amino}-6-(1-methylpyrazol-4-yl)(3-pyridyl))carboxamide]
Second: NCc1cccc(CNC(=O)c2cc(Br)c(-c3ccccc3)nc2NCCc2cccc(F)c2)n1 [N-{[6-(aminomethyl)(2-pyridyl)]methyl}(5-bromo-2-{[2-(3-fluorophenyl)ethyl]amino}-6-phenyl(3-pyridyl))carboxamide]
The pIC50 of the first is 1.35 log units higher: 7.57 for the first, 6.22 for the second.
